# Reference: US6696484B2, “Method and compositions for regulation of 5-alpha reductase activity” (University of Chicago Office of Technology and Intellectual …, priority 1997, dated 2004)
# pIC50: −log10 of the molar value. “And” between values parts separate entries of the source, which are not always exact repeats. Equal entries are not always repeated.
# Legend:
# [1] = tested on: 5α-reductase; assay: Cell-free 5α-reductase assay, isozyme not given; format: biochemical, human; conditions: isozyme not stated
# [2] = tested on: hamster flank organ; assay: Testosterone-stimulated growth of the pigmented macules of hamster flank organs; format: in vivo, Syrian golden hamsters; conditions: 0.5 μg testosterone + 1 mg compound topically daily, 18 days; for Pigmented macule area: castrated male hamsters, mean±SEM;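 as to all read-outs here: prepubertal Syrian golden hamsters castrated at 4 weeks, ethanol vehicle on one flank organ, macule long and short axes gauged by caliper 1 day after final dose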
# [3] = molecular target: T1, type 2 human 5α-reductase (Homo sapiens, UniProt P31213); assay: Whole-cell assay of 5α-reductase, type 2; format: cell-based; design: expressed in transfected cells; host or cells: rat 1A cells infected with pMV7 retrovirus and selected with G418; intact cells for the whole-cell assay; conditions: for pIC50: rat 1A cells expressing human type 2 5α-reductase; for inhibition at 100 µM: read-out: percent inhibition of 5α-reductase activity, whole-cell assay, Type 2, 100 μM compound
# T1 sequence (P31213 1-254): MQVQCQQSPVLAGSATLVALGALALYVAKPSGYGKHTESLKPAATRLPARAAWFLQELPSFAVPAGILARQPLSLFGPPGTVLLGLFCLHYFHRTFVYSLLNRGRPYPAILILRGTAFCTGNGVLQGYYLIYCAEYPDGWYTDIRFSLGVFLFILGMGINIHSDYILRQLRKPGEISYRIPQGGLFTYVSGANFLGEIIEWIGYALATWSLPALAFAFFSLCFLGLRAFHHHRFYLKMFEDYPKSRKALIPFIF
# [4] = molecular target: T2, type 1 human 5α-reductase (Homo sapiens, UniProt P18405); assay: Whole-cell assay of 5α-reductase, type 1; format: cell-based; design: expressed in transfected cells; host or cells: rat 1A cells infected with pMV7 retrovirus and selected with G418; microsomes for the cell-free assay, intact cells for the whole-cell assay; conditions: for pIC50: rat 1A cells expressing human type 1 5α-reductase; for inhibition at 100 µM: read-out: percent inhibition of 5α-reductase activity, whole-cell assay, Type 1
# T2 sequence (P18405 1-259): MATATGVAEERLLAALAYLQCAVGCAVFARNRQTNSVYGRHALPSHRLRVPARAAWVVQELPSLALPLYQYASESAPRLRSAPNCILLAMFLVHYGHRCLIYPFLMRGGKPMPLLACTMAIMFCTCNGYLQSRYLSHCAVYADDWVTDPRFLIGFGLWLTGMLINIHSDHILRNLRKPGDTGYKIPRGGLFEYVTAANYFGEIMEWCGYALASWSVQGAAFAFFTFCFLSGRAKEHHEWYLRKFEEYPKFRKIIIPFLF
# [5] = molecular target: T2, type 1 human 5α-reductase; assay: Cell-free enzymatic assay of 5α-reductase (testosterone to DHT), type 1; conditions: for inhibition at 100 µM: read-out: percent inhibition of 5α-reductase activity, cell-free assay, Type 1, 100 μM compound; for percent inhibition of 5α-reductase activity, cell-free assay, Type 1: 100 μM compound
# [6] = molecular target: T1, type 2 human 5α-reductase; assay: Cell-free enzymatic assay of 5α-reductase (testosterone to DHT), type 2; format: biochemical; design: expressed in transfected cells; host or cells: rat 1A cells infected with pMV7 retrovirus and selected with G418; microsomes for the cell-free assay; conditions: for inhibition at 100 µM: read-out: percent inhibition of 5α-reductase activity, cell-free assay, Type 2, 100 μM compound; for pIC50: microsomes from rat 1A cells expressing human type 2 5α-reductase, read-out: Cell-free assay IC50, 5α-reductase Type 2
# [7] = tested on: hamster flank organ; assay: DHT-stimulated growth of the pigmented macules of hamster flank organs; format: in vivo, Syrian golden hamsters
# Method: Prepubertal male Syrian golden hamsters, castrated at 4 weeks of age, were obtained from Harlan Sprague-Dawley Co. (Madison, Wis.). Bilateral orchiectomy was performed under anesthesia. The hamsters were housed individually in plastic cages and had free access to Purina rodent chow and water, and were maintained on a 12-h light/12-h dark cycle. Hamsters were used 1-2 weeks after castration and were divided into groups of 4-6 or 9-11 animals. Hair on the lower back of each animal was shaved weekly with an electric hair clipper to expose the flank organs. A treatment solution (5 μl with ethanol as vehicle) was applied topically to the flank organ once a day using a Pipetteman and a polypropylene disposable tip. The treatment solution contained either (a) ethanol alone, (b) an androgen (testosterone or DHT), (c) a test compound, or (d) a combination of an androgen and a test compound. For each hamster, one flank organ was treated while the other organ was not treated. The surface of the flank organ was wiped with an alcohol pad to remove residual compound before each treatment. At the end of each experiment (18 days), animals were killed by CO2 asphyxiation or an intraperitoneal injection of […]. Flank organs from both the treated and untreated sides were examined 1 day after the last treatment by the methods described below. The body weight of each animal was recorded before and after treatment. Experiments were repeated at least twice to assure reproducibility. The “Guide for the care and use of laboratory animals” (NIH publication no. 85-28, revised 1988) and the regulations of the U.S. Department of Agriculture were followed throughout the experiments.
# In this study, the growth of the flank organ was determined by measuring the length of the long axis and the short axis of the pigmented spot (pigmented macule) with a caliper with a digital display (Digimatic; Mitutoyo Corporation, Japan). The surface area (in millimeters squared) of the spot was calculated as the product of the long axis and the short axis (Gomez and Frost 1975). The areas of the pigmented spots after treatment with ethanol alone or with test compound (in ethanol) alone were less than 10% of the areas of the pigmented spots after treatment with testosterone alone. These values were deducted from the experimental values and are compared in Tables 8-10. For each experiment, the means and standard error of the means (SEM) of the areas of the untreated and treated macules were computed separately for each treatment group. Within each experiment, an overall F-test (one way ANOVA) was used to test the null hypothesis that the mean sizes of the treated macules were the same in all groups, and Dunnett's multiple range test was used to examine differences between the treatment groups (i.e., green tea catechin+androgen, fatty acid+androgen, EGC derivative+androgen, or fatty acid derivative+androgen) and the control group (androgen treatment only). The Mann-Whitney test was used to examine differences between DHT-treated and the DHT and EGCG-treated groups. P-values <0.05 were taken as indicating statistical significance in all tests (Hochberg and Tamhane 1987).
# Each group comprised four to six castrated male hamsters. At the end of the treatment period, the areas of the pigmented macules were determined and are presented as means±SEM in Table 8.
# Each group comprised four to six castrated male hamsters. At the end of the treatment period, the areas of the pigmented macules were determined and are expressed as means±SEM as shown in Table 10.
compound,measurement,setting,value
O=C1c2ccccc2C(=O)c2ccccc21 [Anthraquinone],pIC50,[1],< 4.00
"CCCCC/C=C\C/C=C\C/C=C\CCCCC(=O)O[C@@H]1Cc2c(O)cc(O)cc2O[C@@H]1c1cc(O)c(O)c(O)c1 [EGC-γ-linoleneate acid, EGC-γ-linoleneate]",Inhibition (percent decrease in macule area vs androgen-treated macules),[2],68%
same,Pigmented macule area,[2],5.50 ± 0.56 mm^2
same,Inhibition (percent decrease in macule area vs androgen-treated macules),[2]; listed as EGC-3 ester of γ-LA,about 70%
same,pIC50,[3],> 4.82
same,pIC50,[4],> 4.82
CC(Cc1ccc(O)c(O)c1)C(C)Cc1ccc(O)c(O)c1 (centres unmarked) [Nordihydroguaiaretic acid],pIC50,[5],4.72
same,inhibition at 100 µM,[6],80%
same,pIC50,[4],4.72
"COc1cc2ccc(=O)oc2c(O)c1O [Fraxetin, 7,8-dihydroxy-6-methoxycoumarin]",inhibition at 100 µM,[5],2%
same,inhibition at 100 µM,[6],8%
same,pIC50,[1],< 4.00
CCCC/C=C\CCCCCCCC(=O)O [myristoleic acid],Inhibition (percent decrease in macule area vs androgen-treated macules),[2],73%
same,Pigmented macule area,[2],4.63 ± 0.66 mm^2
"CC/C=C\C/C=C\C/C=C\CCCCCCCC(=O)O [Alpha-Linolenic Acid, Alpha-Linolenic Acid C18:3 CIS 9,12,15]",pIC50,[5],5.10
same,inhibition at 100 µM,[5],99%
same,pIC50,[6],5.05
same,inhibition at 100 µM,[6],84%
same,pIC50,[3],4.64
same,inhibition at 100 µM,[3],86%
same,pIC50,[4],4.54
same,inhibition at 100 µM,[4]; 100 μM compound,82%
"COc1cc(CCC(=O)CC(=O)CCc2ccc(O)cc2)ccc1O [Demethoxytetrahydrocurcumin, demethoxytetrahydrocurcumin]","percent inhibition of 5α-reductase activity, cell-free assay, Type 1",[5],23%
"CCCC/C=C\CCCCCCCC(=O)O[C@@H]1Cc2c(O)cc(O)cc2O[C@@H]1c1cc(O)c(O)c(O)c1 [EGC-myristoleate, EGC-3-myristoleate]",Inhibition (percent decrease in macule area vs androgen-treated macules),[2],71%
same,Pigmented macule area,[2],5.00 ± 0.42 mm^2
same,Inhibition (percent decrease in macule area vs androgen-treated macules),[2]; listed as EGC-3 ester of MA,about 70%
same,pIC50,[3],> 4.82
same,pIC50,[4],> 4.82
O=C1c2ccccc2C(=O)c2c1cc(S(=O)(=O)[O-])c(O)c2O.[Na+] [Alizarin red S],"percent inhibition of 5α-reductase activity, whole-cell assay, Type 1",[4]; 100 μM compound,22%
O=c1c(O)c(-c2ccc(O)cc2O)oc2cc(O)cc(O)c12 [Morin],inhibition at 100 µM,[5],6%
same,inhibition at 100 µM,[6],33%
O=c1oc2c(O)c(O)cc3c(=O)oc4c(O)c(O)cc1c4c23 [Ellagic acid],pIC50,[1],< 4.00
O=C(/C=C/c1ccc(O)c(O)c1)OCCc1ccccc1 [Caffeic acid phenethyl ester],inhibition at 100 µM,[5],97%
same,inhibition at 100 µM,[6],36%
same,pIC50,[1],4.60
same,inhibition at 100 µM,[3],98%
same,inhibition at 100 µM,[4]; 100 μM compound,99%
COc1cc(/C=C/C(=O)CC(=O)/C=C/c2ccc(O)c(OC)c2)ccc1O [Curcumin],Inhibition (percent decrease in macule area vs androgen-treated macules),[2],87%
same,Pigmented macule area,[2],2.40 ± 0.65 mm^2
same,Inhibition (percent decrease in macule area vs androgen-treated macules),"[7]; 0.5 μg DHT + 1 mg compound topically daily, 18 days",31%
same,Pigmented macule area,"[7]; 0.5 μg DHT + 1 mg compound topically daily, 18 days, mean±SEM",9.50 ± 0.21 mm^2
O=C1c2ccccc2C(=O)c2c(O)c(O)cc(O)c21 [Purpurin],inhibition at 100 µM,[5],95%
same,inhibition at 100 µM,[6],20%
"CCCCC/C=C\C/C=C\CCCCCCCC(=O)O [Linoleic Acid, Linoleic Acid C18:2 CIS 9,12]",inhibition at 100 µM,[5],99%
same,inhibition at 100 µM,[6],85%
same,inhibition at 100 µM,[3],77%
same,inhibition at 100 µM,[4]; 100 μM compound,78%
C[C@@H]1O[C@@H](OC[C@H]2O[C@@H](Oc3c(-c4ccc(O)c(O)c4)oc4cc(O)cc(O)c4c3=O)[C@H](O)[C@@H](O)[C@@H]2O)[C@H](O)[C@H](O)[C@H]1O [Rutin],inhibition at 100 µM,[5],4%
same,inhibition at 100 µM,[6],0%
O=c1c(O)cccc2cc(O)c(O)c(O)c12 [Purpurogallin],inhibition at 100 µM,[5],81%
same,inhibition at 100 µM,[6],31%
"C[C@]12CCC(=O)C[C@@H]1CC[C@@H]1[C@@H]2CC[C@]2(C)[C@@H](O)CC[C@@H]12 [DHT, 5α-dihydrotestosterone, reference compound]","Pigmented macule area, androgen alone (control)","[7]; 0.5 μg DHT alone topically daily, 18 days, mean±SEM",20.80 ± 1.10 mm^2 and 13.67 ± 0.96 mm^2
same,stimulation of flank organ growth relative to the maximum stimulation,[7]; 0.5 μg DHT per flank organ per day,50-70%
"CCCCC/C=C\C/C=C\C/C=C\CCCCC(=O)O [Gamma-Linolenic Acid, Gamma-Linolenic Acid C18:3 CIS 6.9,12]",Inhibition (percent decrease in macule area vs androgen-treated macules),[2],82%
same,Pigmented macule area,[2],3.15 ± 0.42 mm^2
"O=C1C=CC(=C(c2ccc(O)c(O)c2)c2ccccc2S(=O)(=O)O)C=C1O (mixture of isomers) [Pyrocatechol violet, pyrocatecholsulfonephthalein]",pIC50,[6],4.00
"O=c1ccc2c(-c3ccccc3S(=O)(=O)O)c3ccc(O)c(O)c3oc-2c1O [Pyrogallol red, pryrogallolsulfonephthalein]",inhibition at 100 µM,[5],97%
same,inhibition at 100 µM,[6],27%
"COc1cc(/C=C/CO)ccc1O [Coniferol, coniferyl alcohol]",inhibition at 100 µM,[5],10%
same,pIC50,[6],4.00
same,inhibition at 100 µM,[6],49%
"cis or traps-9,11 or 10,12 octadecadienoic acid [Conjugated Octadecadienonic Acid]","percent inhibition of 5α-reductase activity, cell-free assay, Type 1",[5],99%
same,pIC50,"[5]; read-out: Cell-free assay IC50, 5α-reductase Type 1, microsomes from rat 1A cells expressing human type 1 5α-reductase",5.00
same,"percent inhibition of 5α-reductase activity, cell-free assay, Type 2",[6]; 100 μM compound,81%
same,pIC50,[6],4.52
"O=c1ccc2cc(O)c(O)cc2o1 [Esculetin, 6,7-dihydroxycoumarin]",inhibition at 100 µM,[5],7%
same,inhibition at 100 µM,[6],13%
same,pIC50,[1],< 4.00
C=CCc1ccc(O)c(OC)c1 [Eugenol],pIC50,[6],4.00
O=c1cc(-c2ccccc2)oc2cc(O)cc(O)c12 [Chrysin],inhibition at 100 µM,[5],2%
same,inhibition at 100 µM,[6],1%
